According to US9169241B2, “Quinolinyloxyphenylsulfonamides” (Max-Planck-Gesellschaft Zur Forderung der Wissenschaften …, priority 2009, dated 2015):
Like-named read-outs stand apart in the source and are kept apart here.

Legend:
Type in all cases: cell-based
[1] = system: tumor cell; assay: Matrigel outgrowth assay/branching assay (Table Va)
Summary of the method: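 Cells (5000/well) were seeded onto polymerized 3 mg/ml Matrigel with compound at 3.125, 1.56 or 0.78 μM, or DMSO. Imaging by inverted microscopy at 48, 72 and 96 h scored invasive branching. Only concentrations giving total branching inhibition counted as positive.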

[2] = target: T1, wild type AXL (wtAXL) receptor tyrosine kinase (Homo sapiens, UniProt P30530); assay: NIH-3T3-AXL cellular kinase assay (pY-AXL-ELISA); conditions: NIH-3T3-AXL (clone 22) cells, serum depleted, compounds 1 h; Table Ia
T1 construct: WtAXL cDNA was cloned into vector pLXSN(ESK) and transfected into Phoenix E packaging cells; expressed in transfected cells; host or cells: NIH3T3 N7 (mouse fibroblasts), retrovirally infected, clone 22
T1 sequence (P30530 26-894): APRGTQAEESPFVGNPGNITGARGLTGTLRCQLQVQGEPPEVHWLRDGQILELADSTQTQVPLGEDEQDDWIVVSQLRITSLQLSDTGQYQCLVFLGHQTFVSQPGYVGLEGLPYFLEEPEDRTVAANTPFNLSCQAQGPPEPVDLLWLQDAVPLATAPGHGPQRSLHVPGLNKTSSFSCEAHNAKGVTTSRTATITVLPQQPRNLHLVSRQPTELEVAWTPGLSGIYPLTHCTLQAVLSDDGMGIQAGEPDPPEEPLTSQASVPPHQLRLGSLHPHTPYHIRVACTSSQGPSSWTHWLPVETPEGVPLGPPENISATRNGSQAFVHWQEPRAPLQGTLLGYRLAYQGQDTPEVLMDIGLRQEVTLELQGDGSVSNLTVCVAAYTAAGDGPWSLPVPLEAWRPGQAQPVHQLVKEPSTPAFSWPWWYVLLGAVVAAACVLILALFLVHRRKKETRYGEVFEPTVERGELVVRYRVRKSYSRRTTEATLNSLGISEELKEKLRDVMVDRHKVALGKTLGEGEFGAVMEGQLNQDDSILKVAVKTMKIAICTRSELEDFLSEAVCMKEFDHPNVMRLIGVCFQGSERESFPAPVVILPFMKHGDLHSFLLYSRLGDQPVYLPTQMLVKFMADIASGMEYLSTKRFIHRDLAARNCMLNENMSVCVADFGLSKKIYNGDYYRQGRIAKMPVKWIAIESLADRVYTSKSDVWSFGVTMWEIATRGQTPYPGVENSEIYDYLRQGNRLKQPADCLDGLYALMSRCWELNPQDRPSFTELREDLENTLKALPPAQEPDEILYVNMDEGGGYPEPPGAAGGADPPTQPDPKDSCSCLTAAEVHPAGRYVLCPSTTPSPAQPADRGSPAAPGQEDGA
Summary of the method: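 NIH3T3 cells stably expressing human wild-type AXL (retroviral, puromycin-selected clones) were treated with serial compound dilutions for 1 h and lysed. AXL tyrosine phosphorylation was measured by ELISA on the lysates: biotinylated 4G10 anti-phosphotyrosine, streptavidin-alkaline phosphatase, AttoPhos fluorescence at 430/560 nm after 90 min.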

[3] = system: Hs578T; assay: Wound healing migration assay; conditions: Homo sapiens, Hs-578T; HS578T cell line; Table Ib
Summary of the method: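 Cells seeded at 150000/24 well, grown to monolayer overnight, scratched with a pipette tip, then treated with compound at 12.5, 6.25 or 3.125 μM versus DMSO. Stopped by crystal violet fixation at 48-72 h once control wounds closed; IC50 taken as 50% wound size between t0 and t48 or t72.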

[4] = Homo sapiens, C8161 cells, read-out: Total branching inhibition in Matrigel C8161
[5] = Homo sapiens, Hs-578T, Hs578T cells, read-out: Total branching inhibition in Matrigel Hs578T
[6] = U118 cells, read-out: Total branching inhibition in Matrigel U118
[7] = U138 cells, read-out: Total branching inhibition in Matrigel U138

Row | Compound | IC50 [1, 4] [µM] | IC50 [1, 5] [µM] | IC50 [1, 6] [µM] | IC50 [1, 7] [µM] | IC50 [2] [nM] | IC50 [3] [µM]
1 | COc1cc2c(Oc3ccc(NS(=O)(=O)c4ccccc4[N+](=O)[O-])cc3F)ccnc2cc1OCCCN1CCN(C)CC1 [Example 21, N-(3-Fluoro-4-{6-methoxy-7-[3-(4-methyl-piperazin-1-yl)-propoxy]-quinolin-4-yloxy}-phenyl)-2-nitro-benzenesulfonamide] | 5 to 50 | ≤ 5 | 5 to 50 | 5 to 50 |  | 
2 | COc1cc2c(Oc3ccc(NS(=O)(=O)c4cccc(Oc5ccccc5)c4)cc3F)ccnc2cc1OCCCN1CCN(C)CC1 [Example 14, N-(3-Fluoro-4-{6-methoxy-7-[3-(4-methyl-piperazin-1-yl)-propoxy]-quinolin-4-yloxy}-phenyl)-3-phenoxy-benzenesulfonamide] | 5 to 50 | 5 to 50 | ≤ 5 | 5 to 50 |  | 
3 | COc1cc2c(Oc3ccc(NS(=O)(=O)c4ccc(F)c(C#N)c4)cc3F)ccnc2cc1OCCCN1CCCC(C)C1 (centres unmarked) [Example 72, 3-Cyano-4-fluoro-N-(3-fluoro-4-{6-methoxy-7-[3-(3-methyl-piperidin-1-yl)-propoxy]-quinolin-4-yloxy}-phenyl)-benzenesulfonamide] | ≤ 5 | ≤ 5 | ≤ 5 | ≤ 5 |  | 
4 | COc1cc2c(Oc3ccc(NS(=O)(=O)c4ccccc4C(F)(F)F)cc3F)ccnc2cc1OCCCNC1CCOCC1 [Example 95, N-(3-Fluoro-4-{6-methoxy-7-[3-(tetrahydro-pyran-4-ylamino)-propoxy]-quinolin-4-yloxy}-phenyl)-2-trifluoromethyl-benzenesulfonamide] | ≤ 5 | ≤ 5 | 5 to 50 | 5 to 50 |  | 
5 | COc1cc2c(Oc3ccc(NS(=O)(=O)c4ccccc4OC(F)(F)F)cc3F)ccnc2cc1OCCCN1CCN(C)CC1 [Example 25, N-(3-Fluoro-4-{6-methoxy-7-[3-(4-methyl-piperazin-1-yl)-propoxy]-quinolin-4-yloxy}-phenyl)-2-trifluoromethoxy-benzenesulfonamide] | ≤ 5 | ≤ 5 | ≤ 5 | 5 to 50 |  | 
6 | COc1cc2c(Oc3ccc(NS(=O)(=O)c4ccccc4C(F)(F)F)cc3F)ccnc2cc1OCCCN1CCCCC1C (centres unmarked) [Example 99, N-(3-Fluoro-4-{6-methoxy-7-[3-(2-methyl-piperidin-1-yl)-propoxy]-quinolin-4-yloxy}-phenyl)-2-trifluoromethyl-benzenesulfonamide] | 5 to 50 | ≤ 5 | ≤ 5 | ≤ 5 |  | ≤ 12.5
7 | COc1cc2c(Oc3ccc(NS(=O)(=O)c4cc(F)ccc4F)cc3F)ccnc2cc1OCCCN1CCCCC1 [Example 1, 2,5-Difluoro-N-{3-fluoro-4-[6-methoxy-7-(3-piperidin-1-yl-propoxy)-quinolin-4-yloxy]-phenyl}-benzenesulfonamide] | ≤ 5 | ≤ 5 | ≤ 5 | ≤ 5 |  | ≤ 12.5
8 | COc1cc2c(Oc3cccc(NS(=O)(=O)c4ccccc4C(F)(F)F)c3)ccnc2cc1OCCCN1CCN(C)CC1 [Example 102, N-(3-{6-Methoxy-7-[3-(4-methyl-piperazin-1-yl)-propoxy]-quinolin-4-yloxy}-phenyl)-2-trifluoromethyl-benzenesulfonamide] | ≤ 5 | ≤ 5 | ≤ 5 | 5 to 50 |  | ≤ 12.5
9 | COc1cc2c(Oc3ccc(NS(=O)(=O)c4cccc(C#N)c4)cc3F)ccnc2cc1OCCCN1CCCC(C)C1 (centres unmarked) [Example 41, 3-Cyano-N-(3-fluoro-4-{6-methoxy-7-[3-(3-methyl-piperidin-1-yl)-propoxy]-quinolin-4-yloxy}-phenyl)-benzenesulfonamide] | ≤ 5 | ≤ 5 | ≤ 5 | 5 to 50 |  | 
10 | COc1cc2c(Oc3ccc(NS(=O)(=O)c4ccccc4C(F)(F)F)cc3F)ccnc2cc1OCCCN1CCN(C)CC1 [Example 24, N-(3-Fluoro-4-{6-methoxy-7-[3-(4-methyl-piperazin-1-yl)-propoxy]-quinolin-4-yloxy}-phenyl)-2-trifluoromethyl-benzenesulfonamide] | ≤ 5 | ≤ 5 | ≤ 5 | 5 to 50 |  | 
11 | COc1cc2c(Oc3ccc(NS(=O)(=O)c4ccccc4C(F)(F)F)cc3F)ccnc2cc1OCCCN(C)C [Example 100, N-{4-[7-(3-Dimethylamino-propoxy)-6-methoxy-quinolin-4-yloxy]-3-fluoro-phenyl}-2-trifluoromethyl-benzenesulfonamide] | ≤ 5 | ≤ 5 | ≤ 5 | 5 to 50 |  | ≤ 12.5
12 | COc1cc2c(Oc3ccc(NS(=O)(=O)c4ccccc4OC)cc3F)ccnc2cc1OCCCN1CCN(C)CC1 [Example 33, N-(3-Fluoro-4-{6-methoxy-7-[3-(4-methyl-piperazin-1-yl)-propoxy]-quinolin-4-yloxy}-phenyl)-2-methoxy-benzenesulfonamide] | ≤ 5 | ≤ 5 | ≤ 5 | 5 to 50 |  | 

Now from value to compound, other results behind:

Row | IC50 [1, 4] [µM] | IC50 [1, 5] [µM] | IC50 [1, 6] [µM] | IC50 [1, 7] [µM] | IC50 [2] [nM] | Compound | IC50 [3] [µM]
13 | ≤ 5 | ≤ 5 | ≤ 5 | 5 to 50 |  | COc1cc2c(Oc3ccc(NS(=O)(=O)c4c(Cl)cccc4Cl)cc3F)ccnc2cc1OCCCN1CCN(C)CC1 [Example 32, 2,6-Dichloro-N-(3-fluoro-4-{6-methoxy-7-[3-(4-methyl-piperazin-1-yl)-propoxy]-quinolin-4-yloxy}-phenyl)-benzenesulfonamide] | 
14 | ≤ 5 | ≤ 5 | ≤ 5 | 5 to 50 | < 500 | COc1cc2c(Oc3ccc(NS(=O)(=O)c4cc(Cl)cc(Cl)c4OC)cc3F)ccnc2cc1OCCCN1CCN(C)CC1 [Example 35, 3,5-Dichloro-N-(3-fluoro-4-{6-methoxy-7-[3-(4-methyl-piperazin-1-yl)-propoxy]-quinolin-4-yloxy}-phenyl)-2-methoxy-benzenesulfonamide] | 
15 | ≤ 5 | ≤ 5 | ≤ 5 | ≤ 5 |  | COc1cc2c(Oc3ccc(NS(=O)(=O)c4cccc(C)c4)cc3F)ccnc2cc1OCCCN1CCCC(C)C1 (centres unmarked) [Example 70, N-(3-Fluoro-4-{6-methoxy-7-[3-(3-methyl-piperidin-1-yl)-propoxy]-quinolin-4-yloxy}-phenyl)-3-methyl-benzenesulfonamide] | 
16 | ≤ 5 | ≤ 5 | ≤ 5 | 5 to 50 |  | COc1cc2c(Oc3ccc(NS(=O)(=O)c4ccccc4Cl)cc3F)ccnc2cc1OCCCN1CCN(C)CC1 [Example 29, 2-Chloro-N-(3-fluoro-4-{6-methoxy-7-[3-(4-methyl-piperazin-1-yl)-propoxy]-quinolin-4-yloxy}-phenyl)-benzenesulfonamide] | 
17 | ≤ 5 | ≤ 5 | ≤ 5 | 5 to 50 |  | COc1cc2c(Oc3ccc(NS(=O)(=O)c4ccccc4C(F)(F)F)cc3F)ccnc2cc1OCC(=O)N(C)C [Example 93, 2-{4-[2-Fluoro-4-(2-trifluoromethyl-benzenesulfonylamino)-phenoxy]-6-methoxy-quinolin-7-yloxy}-N,N-dimethyl-acetamide] | 
18 | ≤ 5 | 5 to 50 | 5 to 50 | 5 to 50 |  | COc1cc2c(Oc3c(Cl)cc(NS(=O)(=O)c4c(F)cccc4F)cc3Cl)ccnc2cc1OCCCN1CCN(C)CC1 [Example 88, N-(3,5-Dichloro-4-{6-methoxy-7-[3-(4-methyl-piperazin-1-yl)-propoxy]-quinolin-4-yloxy}-phenyl)-2,6-difluoro-benzenesulfonamide] | 
